Experimental data taken from patent US20200181117A1, “SUBSTITUTED 3-HETEROARYLOXY-1H-PYRAZOLES AND SALTS THEREOF AND THEIR USE AS HERBICIDAL ACTIVE SUBSTANCES” (BAYER CROPSCIENCE AKTIENGESELLSCHAFT, priority 2017, published 2020).

Legend:
Type in all cases: in vivo
Viola tricolor [1] = test: Pre-emergence herbicidal action; settings: 1280 g/ha, scored visually after about 3 weeks vs untreated controls
Text: (§1) Pre-Emergence Herbicidal Action and Crop Plant Compatibility Seeds of monocotyledonous and dicotyledonous weed plants and crop plants were placed in plastic or wood fiber pots and covered with soil. The compounds of the invention, formulated in the form of wettable powders (WP) or as emulsion concentrates (EC), were then applied onto the surface of the covering soil as aqueous suspension or emulsion with addition of 0.5% additive at a water application rate of 600 l/ha (converted). After the treatment, the pots were placed in a greenhouse and kept under good growth conditions for the test plants. After about 3 weeks, the effect of the preparations was scored visually in comparison with untreated controls as percentages. For example, 100% activity=the plants have died, 0% activity=like control plants. Tables C1 to C14 below show the effects of selected compounds of the general formula (I) according to Table I on various harmful plants and an application rate corresponding to 1280 g/ha, which were obtained by the experimental procedure mentioned above.

Stellaria media [2] = test: Pre-emergence herbicidal action; settings: 1280 g/ha, scored visually after about 3 weeks vs untreated controls
Text: as §1

Setaria viridis [3] = test: Pre-emergence herbicidal action; settings: 1280 g/ha, scored visually after about 3 weeks vs untreated controls
Text: as §1

Amaranthus retroflexus [4] = test: Pre-emergence herbicidal action; settings: 1280 g/ha, scored visually after about 3 weeks vs untreated controls
Text: as §1

Abutilon theophrasti [5] = test: Pre-emergence herbicidal action; settings: 1280 g/ha, scored visually after about 3 weeks vs untreated controls
Text: as §1

Viola tricolor [6] = test: Post-emergence herbicidal action; settings: 1280 g/ha, rated visually after about 3 weeks vs untreated controls
Procedure: (§2) A. Post-Emergence Herbicidal Action and Crop Plant Compatibility Seeds of monocotyledonous and dicotyledonous weeds and crop plants were placed in sandy loam in plastic or wood-fiber pots, covered with soil and cultivated in a greenhouse under controlled growth conditions. 2 to 3 weeks after sowing, the test plants were treated at the one-leaf stage. The compounds of the invention, formulated in the form of wettable powders (WP) or as emulsion concentrates (EC), were then sprayed onto the green parts of the plants as aqueous suspension or emulsion with addition of 0.5% additive at a water application rate of 600 l/ha (converted). After the test plants had been kept in the greenhouse under optimum growth conditions for about 3 weeks, the activity of the preparations was rated visually in comparison to untreated controls. For example, 100% activity=the plants have died, 0% activity=like control plants. Tables B1 to B15 below show the effects of selected compounds of the general formula (I) according to Table I on various harmful plants and an application rate corresponding to 1280 g/ha, which were obtained by the experimental procedure mentioned above.

Pharbitis purpurea = test: Post-emergence herbicidal action; settings: 1280 g/ha, rated visually after about 3 weeks vs untreated controls
Procedure: as §2

Amaranthus retroflexus [7] = test: Post-emergence herbicidal action; settings: 1280 g/ha, rated visually after about 3 weeks vs untreated controls
Procedure: as §2

Abutilon theophrasti [8] = test: Post-emergence herbicidal action; settings: 1280 g/ha, rated visually after about 3 weeks vs untreated controls
Procedure: as §2

Stellaria media [9] = test: Post-emergence herbicidal action; settings: 1280 g/ha, rated visually after about 3 weeks vs untreated controls
Procedure: as §2

Polygonum convolvulus [10] = test: Post-emergence herbicidal action; settings: 1280 g/ha, rated visually after about 3 weeks vs untreated controls
Procedure: as §2

Veronica persica = test: Pre-emergence herbicidal action; settings: 1280 g/ha, scored visually after about 3 weeks vs untreated controls
Text: as §1

Alopecurus myosuroides [11] = test: Pre-emergence herbicidal action; settings: 1280 g/ha, scored visually after about 3 weeks vs untreated controls
Text: as §1

Matricaria inodora = test: Pre-emergence herbicidal action; settings: 1280 g/ha, scored visually after about 3 weeks vs untreated controls
Text: as §1

Polygonum convolvulus [12] = test: Pre-emergence herbicidal action; settings: 1280 g/ha, scored visually after about 3 weeks vs untreated controls
Text: as §1

Avena fatua = test: Pre-emergence herbicidal action; settings: 1280 g/ha, scored visually after about 3 weeks vs untreated controls
Text: as §1

Echinochloa crus-galli = test: Pre-emergence herbicidal action; settings: 1280 g/ha, scored visually after about 3 weeks vs untreated controls
Text: as §1

Hordeum murinum = test: Pre-emergence herbicidal action; settings: 1280 g/ha, scored visually after about 3 weeks vs untreated controls
Text: as §1

Alopecurus myosuroides [13] = test: Post-emergence herbicidal action; settings: 1280 g/ha, rated visually after about 3 weeks vs untreated controls
Procedure: as §2

Setaria viridis [14] = test: Post-emergence herbicidal action; settings: 1280 g/ha, rated visually after about 3 weeks vs untreated controls
Procedure: as §2

Lolium rigidum = test: Pre-emergence herbicidal action; settings: 1280 g/ha, scored visually after about 3 weeks vs untreated controls
Text: as §1

Compound | herbicidal activity on Viola tricolor (Viola tricolor [1]) | herbicidal activity on Stellaria media (Stellaria media [2]) | herbicidal activity on Setaria viridis (Setaria viridis [3]) | herbicidal activity on Amaranthus retroflexus (Amaranthus retroflexus [4]) | herbicidal activity on Abutilon theophrasti (Abutilon theophrasti [5]) | herbicidal activity on Viola tricolor (Viola tricolor [6]) | herbicidal activity on Amaranthus retroflexus (Amaranthus retroflexus [7]) | herbicidal activity on Abutilon theophrasti (Abutilon theophrasti [8]) | herbicidal activity on Polygonum convolvulus (Polygonum convolvulus [10]) | herbicidal activity on Veronica persica (Veronica persica) | herbicidal activity on Alopecurus myosuroides (Alopecurus myosuroides [11]) | herbicidal activity on Matricaria inodora (Matricaria inodora) | herbicidal activity on Polygonum convolvulus (Polygonum convolvulus [12]) | herbicidal activity on Echinochloa crus-galli (Echinochloa crus-galli) | other results
CCc1c(Sc2cccc(Cl)c2)c(Oc2ncc(F)cn2)nn1C [Example I-034] | 100% | 90% | 100% | 100% | 80% | 100% | 100% | 80% | – | – | – | – | – | – | herbicidal activity on Pharbitis purpurea (Pharbitis purpurea): 90%
CCc1c(Sc2cccc(Cl)c2)c(Oc2ncccn2)nn1C [Example I-035] | 100% | – | 90% | 90% | – | 100% | – | 100% | 100% | – | – | – | – | – | herbicidal activity on Stellaria media (Stellaria media [9]): 80%
CC(C)n1cc(Sc2ccc(F)cc2)c(Oc2ncccn2)n1 [Example I-039] | 100% | 100% | 90% | 100% | 100% | 100% | – | – | – | 100% | 100% | 90% | 90% | – | herbicidal activity on Avena fatua (Avena fatua): 90%
CCn1cc(Sc2ccccc2)c(Oc2ncccn2)n1 [Example I-042] | 90% | 100% | 80% | 80% | – | – | – | – | 80% | 100% | – | 90% | – | – | –
CCc1c(Sc2ccccc2)c(Oc2ncccn2)nn1C [Example I-063] | 100% | 90% | 100% | 100% | 100% | 100% | 100% | 100% | – | – | 100% | 100% | 100% | 100% | herbicidal activity on Hordeum murinum (Hordeum murinum): 100%; herbicidal activity on Avena fatua (Avena fatua): 100%; herbicidal activity on Alopecurus myosuroides (Alopecurus myosuroides [13]): 100%; herbicidal activity on Setaria viridis (Setaria viridis [14]): 80%
CCc1c(Sc2ccc(F)cc2)c(Oc2ncccn2)nn1C [Example I-064] | 100% | 100% | 100% | 100% | 100% | 100% | 100% | 80% | 100% | 100% | 90% | 90% | 100% | 90% | herbicidal activity on Stellaria media (Stellaria media [9]): 100%; herbicidal activity on Setaria viridis (Setaria viridis [14]): 100%
Cc1ccnc(Oc2nn(C)c(C)c2Sc2cccc(Cl)c2)n1 [Example I-096] | 100% | 90% | 100% | 100% | 100% | – | – | 80% | – | 100% | 100% | 100% | 100% | 80% | –
Cc1c(Sc2ccc(F)cc2F)c(Oc2ncc(F)cn2)nn1C [Example I-115] | 100% | 90% | 100% | 100% | 100% | 100% | 100% | 100% | 90% | 100% | 90% | 90% | 90% | 100% | herbicidal activity on Lolium rigidum (Lolium rigidum): 80%; herbicidal activity on Stellaria media (Stellaria media [9]): 100%; herbicidal activity on Setaria viridis (Setaria viridis [14]): 100%
CCn1cc(Sc2ccc(F)cc2)c(Oc2ncc(Cl)cn2)n1 [Example I-121] | 100% | 80% | 90% | 100% | – | 80% | 80% | – | 80% | 100% | – | – | 90% | – | –
CCn1cc(Sc2ccccc2)c(Oc2ncc(Cl)cn2)n1 [Example I-138] | 90% | – | 100% | – | 80% | 80% | – | – | – | 100% | – | – | 80% | – | –
COc1cnc(Oc2nn(C)c(C)c2Sc2ccc(F)cc2Cl)nc1 [Example I-156] | 100% | 100% | 100% | 100% | 90% | 100% | 100% | – | 80% | – | – | 100% | 100% | 80% | –
CCn1cc(Sc2ccc(Cl)cc2)c(Oc2ncc(F)cn2)n1 [Example I-160] | 100% | – | – | – | – | 100% | – | – | – | 100% | – | – | 80% | – | –
CCc1c(Sc2cccc(F)c2)c(Oc2ncc(F)cn2)nn1C [Example I-203] | 90% | 80% | 100% | 100% | 90% | 100% | 100% | 100% | – | 100% | 90% | 80% | 80% | 80% | herbicidal activity on Stellaria media (Stellaria media [9]): 90%; herbicidal activity on Pharbitis purpurea (Pharbitis purpurea): 90%; herbicidal activity on Setaria viridis (Setaria viridis [14]): 90%
Cn1cc(Sc2ccc(Cl)cc2)c(Oc2cnc(Cl)nc2)n1 [Example I-230] | – | – | – | – | – | 80% | – | – | – | – | – | – | – | – | –
